Columns and labels:
[1] = Test B: In-Vitro Competitive Aortic Tissue Binding Assay; parameters: species or system Han Wistar rats; conditions: 100 μM compound, competition with [14C]-labelled WO2010/128324 Ex. 3 in rat aortic homogenate; four categories
Procedure: To assist the design of DPP1 inhibitors with a decreased risk of binding to elastin rich tissues, such as the aorta, the in-vitro competitive aortic binding assay disclosed below (Test B) was developed to facilitate the selection process.
Test B: In-Vitro Competitive Aortic Tissue Binding Assay
Aortic homogenate was prepared from the thoracic aortae of Han Wistar rats. Freshly isolated to thoracic aortae were frozen, and later thawed and stripped of non-elastic material. […] Homogenate concentration was adjusted to 30 mg/mL in Puck's saline, and aliquots were stored at −80° C. until use. Positive and negative control compounds and test compounds were made up to 100 mM in DMSO, and added to 1 mL aliquots of aortic homogenate in Puck's saline for a final concentration of 100 μM. Homogenate samples were pre-incubated with test compounds at 37° C., rotating, overnight. [^14C]4-Amino-N-[(1S)-1-cyano-2-(4′-cyanobiphenyl-4-yl)ethyl]tetrahydro-2H-pyran-4-carboxamide was then added to all samples to a final concentration of 100 μM, and samples were incubated at 37° C., rotating, for a further 2 h. Protein was precipitated from each sample by the addition of 10 mL acetone, pre-chilled to −20° C. Samples were left overnight at −20° C. to allow complete precipitation. Precipitate was pelleted by centrifugation at 4,500×g at 4° C. for 20 min, an aliquot of supernatant was removed for analysis, and the remainder of the supernatant discarded. Precipitate was washed by resuspension in 10 mL 80% methanol in distilled water, and re-pelleted by centrifugation at 4,500×g at 4° C. for 20 min. […] After final wash, precipitate was air-dried, and dissolved overnight in 1 mL NCSII Tissue Solubiliser. 1 mL aliquots of supernatants were added to 5 mL Ultima Gold scintillation fluid (Perkin Elmer, Mass., U.S.A.), and 1 mL solubilised pellets were added to 5 mL Hionic-Fluor scintillation fluid (Perkin Elmer, Mass., U.S.A.). Radioactivity of samples was determined on a Beckman LS6500 multipurpose scintillation counter (Beckman Coulter, Ind., U.S.A.). […] Duplicate samples were tested for each compound on each experimental occasion, and at least two experiments were run for each test compound. […] 1-way ANOVA and Bonferroni's multiple comparison tests were performed to calculate significance of differences from vehicle control.

[2] = target: Recombinant Human (RH) DPP1 (Homo sapiens (Human), UniProt P53634); assay: Test A1: Fluorescence Assay for Recombinant Human (RH) DPP1; format: biochemical; conditions: Test A1, rhDPP1, H-Gly-Arg-AMC substrate (Examples 1-35)
Procedure: Test A1: Fluorescence Assay for Recombinant Human (RH) DPP1
The activity of DPP1 was determined by measuring the enzymatic release of aminomethyl coumarin (AMC) from the peptide substrate (H-Gly-Arg-AMC), which leads to an increase in fluorescence intensity at λex=350 nm and λem=450 nm. The assay was carried out in black 384 well plates in a final volume of 50 μl at 22° C. The assay conditions contained the following: 25 mM piperazine buffer pH 5.0; 50 mM NaCl, 5 mM DTT; 0.01% (v/v) Triton X-100; 100 μM H-Gly-Arg-AMC and rhDPP1 (˜50 pM). […] Routinely, inhibitors were pre-incubated with rhDPP1 for 30-60 min prior to the addition of the peptide substrate to start the reaction for a further 60 min at 22° C.

[3] = rat quantitative whole-body autoradiography (QWBA) studies; format: in vivo
[4] = described in literature (Schmidt et al. 1984); cited from earlier work

Sequence of Recombinant Human (RH) DPP1 (P53634 231-394): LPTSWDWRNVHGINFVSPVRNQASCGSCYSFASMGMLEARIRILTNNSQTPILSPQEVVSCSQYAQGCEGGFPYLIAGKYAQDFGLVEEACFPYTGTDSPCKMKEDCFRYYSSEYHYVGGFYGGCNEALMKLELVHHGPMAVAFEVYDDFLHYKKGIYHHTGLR
Sequence of Recombinant Human (RH) DPP1 (P53634 25-143): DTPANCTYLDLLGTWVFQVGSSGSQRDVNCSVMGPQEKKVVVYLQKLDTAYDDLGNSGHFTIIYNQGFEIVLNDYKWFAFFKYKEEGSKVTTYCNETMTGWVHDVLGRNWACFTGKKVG
Sequence of Recombinant Human (RH) DPP1 (P53634 395-463): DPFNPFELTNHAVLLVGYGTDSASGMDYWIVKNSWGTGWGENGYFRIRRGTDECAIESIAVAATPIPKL

SMILES	Aortic Tissue Binding [1]	further results
Cn1c(=O)oc2ccc(-c3ccc(C[C@@H](C#N)NC(=O)[C@@H]4CNCCCO4)cc3)cc21 [Example 2, (2S)—N-{(1S)-1-Cyano-2-[4-(3-methyl-2-oxo-2,3-dihydro-1,3-benzoxazol-5-yl)phenyl]ethyl}-1,4-oxazepane-2-carboxamide]	No binder	
N#C[C@H](Cc1ccc(-c2ccc(C(N)=O)c(F)c2)cc1)NC(=O)[C@@H]1CNCCCO1 [Example 23, (2S)-N-[(1S)-2-(4′-Carbamoyl-3′-fluorobiphenyl-4-yl)-1-cyanoethyl]-1,4-oxazepane-2-carboxamide]		DPP1 activity, pIC50 [2]: 7.17
CS(=O)(=O)c1ccc(-c2ccc(C[C@@H](C#N)NC(=O)[C@@H]3CNCCCO3)cc2)cc1 [Example 30, (2S)-N-{(1S)-1-Cyano-2-[4′-(methylsulfonyl)biphenyl-4-yl]ethyl}-1,4-oxazepane-2-carboxamide]		DPP1 activity, pIC50 [2]: 7.43
N#Cc1ccc(-c2ccc(C[C@@H](C#N)NC(=O)[C@@H]3CCCCN3)cc2)cc1 [WO2009/074829 (Example 24)]	Binder	
Cn1c(=O)oc2ccc(-c3ccc(C[C@@H](C#N)NC(=O)[C@@H]4CCCCN4)cc3)cc21 [WO2009/074829 (Example 96)]	Medium binder	
N#Cc1ccc(-c2ccc(C[C@@H](C#N)NC(=O)C3(N)CCOCC3)cc2)cc1 [WO2010/128324 (Ex. 3), 4-amino-N-[(1S)-1-cyano-2-(4′-cyanobiphenyl-4-yl)ethyl]tetrahydro-2H-pyran-4-carboxamide]	Strong binder (reference)	aortic retention in QWBA [3]: high level of aortic retention
Cn1c(=O)oc2ccc(-c3ccc(C[C@@H](C#N)NC(=O)C4(N)CCOCC4)cc3)cc21 [WO2010/128324 (Example 17)]	Strong binder	
CC(c1ccc(Cl)c(Cl)c1)N1N=C(N)CC1=O (stereo not drawn) [muzolimine]		retention in the aorta in QWBA [4]: retained selectively in the aorta

Reference: US10669245B2, “Certain (2S)-N-[(1S)-1-cyano-2-phenylethyl]-1,4-oxazepane-2-carboxamides dipeptidyl peptidase 1 inhibitors” (AstraZeneca AB, priority 2014, dated 2020)
